Among the data in BindingDB's records for doi:10.1016/j.chembiol.2006.05.015 (The Scripps Research Institute, 2006) are IC50 values, retold here.

Assay [1] has as its target T1, Tyrosine-protein kinase ABL1 [1-999,Q252H] (Homo sapiens, UniProt P00519, Q252H).
T1 construct: 1-999
Kind of assay: Biochemcial Assay. To be noted: pH 7.5. An excerpt:
An in vitro kinase assay using phosphorylated recombinant human Abl kinase domains to phosphorylate a peptide substrate.

The target of assay [2] is T1, Tyrosine-protein kinase ABL1 [1-999,Q252H]. Kind of assay: Biochemcial Assay. The following applies: pH 7.5. An excerpt:
An in vitro kinase assay using dephophorylated conformationally inactive Abl kinase was obtained by treating pure recombinant Abl with Yersinia […] phosphatase from Calbiochem.
This is another data set of the same source.

What is called IC50 is the midpoint of a concentration-inhibition curve. Read a high IC50 as weaker potency in that assay. As to `Cc1ccc(Cl)cc1Nc1nccc(-c2cccnc2)n1` [Type I progenitor, 1], the IC50 in assay [1] and in assay [2] was greater than 5000 nM throughout.

For `O=[N+]([O-])c1ccc(Oc2ncnc3[nH]ccc23)cc1` [Type I progenitor, 4], the 50% inhibitory concentration (IC50) in assay [1] and in assay [2] was greater than 5000 nM in each case.

As to `O=C(Nc1ccc(N2CCOCC2)cc1)c1cc2cnc3[nH]ccc3c2s1` [Type I progenitor, 7], the IC50 in assay [1] and in assay [2] was greater than 5000 nM each time.

`CC(O)c1cccc(Nc2ncc3cc(-c4c(Cl)cccc4Cl)c(=O)n(C)c3n2)c1` (stereo unspecified) [Type I progenitor, 11]: the results for the IC50 in assay [1] and in assay [2] were 5.7 nM and 5.8 nM, respectively.

Take `Cc1ccc(NC(=O)c2cccc(C(F)(F)F)c2)cc1Nc1nccc(-c2cccnc2)n1` [Type II inhibitor, 2]: the IC50 turned out to be 152 nM in assay [1] and 5 nM in assay [2].

In the case of `Cc1ccc(N(C)C(=O)c2cccc(C(F)(F)F)c2)cc1Nc1nccc(-c2cccnc2)n1` [Type II inhibitor, 3], the IC50 in assay [1] was greater than 5000 nM; in assay [2], 1360 nM.

Turning to `O=C(Nc1ccc(Oc2ncnc3[nH]ccc23)cc1)Nc1cccc(C(F)(F)F)c1` [Type II inhibitor, 5], the IC50 in assay [1] was greater than 5000 nM; in assay [2], 374 nM.

With `O=C(Cc1cccc(C(F)(F)F)c1)Nc1ccc(Oc2ncnc3[nH]ccc23)cc1` [Type II inhibitor, 6], the IC50 in assay [1] and in assay [2] was greater than 5000 nM throughout.

For the compound `Cc1cc(NC(=O)c2cccc(C(F)(F)F)c2)ccc1NC(=O)c1cc2cnc3[nH]ccc3c2s1` [Type II inhibitor, 8], the concentration for half-maximal inhibition (IC50) in assay [1] is greater than 5000 nM; in assay [2], 154 nM.

`Cc1cc(N(C)C(=O)c2cccc(C(F)(F)F)c2)ccc1NC(=O)c1cc2cnc3[nH]ccc3c2s1` [Type II inhibitor, 10]: the IC50 in assay [1] and in assay [2] was greater than 5000 nM throughout.

Regarding `CC(O)c1cccc(Nc2ncc3cc(-c4cc(NC(=O)c5cccc(C(F)(F)F)c5)ccc4Cl)c(=O)n(C)c3n2)c1` (stereo unspecified) [Type II inhibitor, 12], the half-inhibitory concentration (IC50) in assay [1] was found to be 19.6 nM; in assay [2], 27.2 nM.

Take `CC(O)c1cccc(Nc2ncc3cc(-c4cc(N(C)C(=O)c5cccc(C(F)(F)F)c5)ccc4Cl)c(=O)n(C)c3n2)c1` (stereo unspecified) [Type II inhibitor, 13]: the values for the IC50 in assay [1] and in assay [2] were 150 nM and 9.1 nM, respectively.

Regarding `Cc1ccc(N(C)C(=O)c2cccc(C(F)(F)F)c2)cc1N1Cc2cnc(N)nc2N(C)C1=O` [Type II inhibitor, 15], the IC50 in assay [1] and in assay [2] was greater than 5000 nM throughout.
